Our source for the TGI values is PubChem BioAssay (NCI).

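Compound exposure: 48 hours, 5 concentrations, 96-well plates. The concentration for full growth arrest is given as TGI.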

One assay concerns NCI-H23 lung. In words: NCI tumour cell line growth inhibition, 48 h.
As for `O=c1c2c3ccccc3[nH]c2c2cccc3c2n1CCC3`, the TGI is more than 100 µM.

The compound `c1ccc([P+](CCNCCNCC[P+](c2ccccc2)(c2ccccc2)c2ccccc2)(c2ccccc2)c2ccccc2)cc1` had a TGI of more than 100 µM.

On to `c1ccc(C[P+]2(c3ccccc3)c3ccccc3-c3ccccc32)cc1`, for which the TGI is more than 100 µM.

The compound `C=CCN(CC=C)Cn1c(=S)sc2ccccc21` displayed a TGI of more than 100 µM.

In turn, `O=c1[nH]c2nc3ccccc3c(=O)n2/c1=C/c1ccc(O)cc1` gave a TGI of more than 100 µM.

In the case of `CCOC(=O)c1c(NC(=O)c2ccccc2)sc2c1CCCC2`, the TGI is more than 100 µM.

`O=c1c2ccccc2[nH]c(=S)n1-c1ccc(N=Nc2cccc3c(O)cccc23)cc1`: the TGI was more than 100 µM.

For `CCOc1ccc(N/C(=C(/C(Cl)=C(/Cl)NCCN)[N+](=O)[O-])n2nnc3ccccc32)cc1`, the TGI is more than 100 µM.

`CC(=O)NC1C(OCc2ccccc2)OC(CO)C(O)C1OCC(=O)N[C@@H](C)C(=O)N[C@H](CCC(=O)NCCNCCNc1c2ccccc2nc2cccc([N+](=O)[O-])c12)C(N)=O` (some centres not stated): the TGI stood at 35.3 µM.

Take `O=C1CC(C(O)CO)CC(=O)N1` (configuration not stated): the TGI was more than 100 µM.

In turn, `C[C@]12OC[C@H](c3ccccc3)N1C(=O)C1[C@H]2CC12SCCS2` (some centres not stated) returned a TGI of more than 100 µM.

`O=C(Cc1nc2ccc(C(=O)c3ccccc3)cc2[nH]c1=O)C(=O)Nc1ccc(Br)cc1` registered a TGI of more than 100 µM.

Take `Cc1cccc(N2C(=O)C3ON(C(C(N)=O)c4ccccc4)C(c4c5ccccc5c(Cl)c5ccccc45)C3C2=O)c1C` (configuration not stated): the TGI worked out at 32.1 µM.

Regarding `Cc1ccccc1C1OC1C(=O)c1ccccc1N` (configuration not stated), the TGI was more than 100 µM.

`c1cc(-c2cnc(-c3ccc4c(c3)CCCO4)o2)ccn1` displayed a TGI of 30.2 µM.

Compound `CCN(CC)CCn1c2cc3c(cc2c(=O)c2cccnc21)OCCO3` showed a TGI of more than 10 µM.

Another assay relates to SNB-19 CNS. The assay can be described thus: NCI tumour cell line growth inhibition, 48 h.
Consider `Cc1ccc2c(c1)nc(N)n[n+]2[O-]`, for which the TGI was more than 100 µM.

`Cc1cn(C2C=CC(COP(=O)(OCC3=CC(=O)c4ccccc4C3=O)N(C)CCCCCl)O2)c(=O)[nH]c1=O` (configuration not stated) had a TGI of 25.6 µM.

`CCOC(=O)c1cc(=C2\CCN(CC(C)CC)C2=S)/c(=C(/O)CC)[nH]1` (configuration not stated): the TGI was 34.7 µM.

Consider `CCCCc1c(O)nc(Nc2nc3ccccc3[nH]2)[nH]c1=O`, for which the TGI was more than 100 µM.

With `CC1(C)CC2(C)CC1CC2O` (configuration not stated), the TGI is more than 100 µM.

As to `N#CC1=C(N)OC2=C(CSc3ccccc32)C1c1ccc(Br)cc1` (configuration not stated), the TGI stood at 51.9 µM.

`CCC(=O)C(c1ccccc1)c1ccccn1` (configuration not stated) showed a TGI of more than 100 µM.

In turn, `Cc1sc2nc3n(c(=O)c2c1C)N=CN(c1ccccc1)C3` returned a TGI of more than 100 µM.

In the case of `COC(=O)C1=C(C(=O)OC)C2OC1C1C2C2(C)C(C)=C(C)C1(C)S2=O` (configuration not stated), the TGI is 66.1 µM.

For `CCOC(=O)CCC(NC(=O)c1ccc(OCc2nc3cc(C(F)(F)F)ccc3nc2-c2ccccc2)cc1)C(=O)OCC` (configuration not stated), the TGI is more than 100 µM.

Compound `O=c1c2c3ccccc3[nH]c2c2cccc3c2n1CCC3` returned a TGI of more than 100 µM.

Compound `c1ccc([P+](CCNCCNCC[P+](c2ccccc2)(c2ccccc2)c2ccccc2)(c2ccccc2)c2ccccc2)cc1` gave a TGI of more than 100 µM.

`c1ccc(C[P+]2(c3ccccc3)c3ccccc3-c3ccccc32)cc1` yielded a TGI of more than 100 µM.

Consider `C=CCN(CC=C)Cn1c(=S)sc2ccccc21`, for which the TGI was more than 100 µM.

For the compound `O=c1[nH]c2nc3ccccc3c(=O)n2/c1=C/c1ccc(O)cc1`, the TGI was determined as 51.3 µM.

`CCOC(=O)c1c(NC(=O)c2ccccc2)sc2c1CCCC2` gave a TGI of more than 100 µM.

`O=c1c2ccccc2[nH]c(=S)n1-c1ccc(N=Nc2cccc3c(O)cccc23)cc1` returned a TGI of more than 100 µM.

For the compound `CCOc1ccc(N/C(=C(/C(Cl)=C(/Cl)NCCN)[N+](=O)[O-])n2nnc3ccccc32)cc1`, the TGI was more than 100 µM.

Regarding `CC(=O)NC1C(OCc2ccccc2)OC(CO)C(O)C1OCC(=O)N[C@@H](C)C(=O)N[C@H](CCC(=O)NCCNCCNc1c2ccccc2nc2cccc([N+](=O)[O-])c12)C(N)=O` (some centres not stated), the TGI was more than 100 µM.

`O=C1CC(C(O)CO)CC(=O)N1` (configuration not stated) gave a TGI of more than 100 µM.

`C[C@]12OC[C@H](c3ccccc3)N1C(=O)C1[C@H]2CC12SCCS2` (some centres not stated): the TGI is more than 100 µM.

In the case of `Cc1cccc(N2C(=O)C3ON(C(C(N)=O)c4ccccc4)C(c4c5ccccc5c(Cl)c5ccccc45)C3C2=O)c1C` (configuration not stated), the TGI was 18.4 µM.

Regarding `Cc1ccccc1C1OC1C(=O)c1ccccc1N` (configuration not stated), the TGI is more than 100 µM.

Regarding `c1cc(-c2cnc(-c3ccc4c(c3)CCCO4)o2)ccn1`, the TGI came out at 40.9 µM.

Regarding `CCN(CC)CCn1c2cc3c(cc2c(=O)c2cccnc21)OCCO3`, the TGI is more than 10 µM.

A further assay concerns SW-620 colon. The assay can be described thus: NCI tumour cell line growth inhibition, 48 h.
The compound `Cc1ccc2c(c1)nc(N)n[n+]2[O-]` had a TGI of more than 100 µM.

For `COc1ccc2c(c1)c1c(n2CCN2CCOCC2)-c2ccccc2CC1`, the TGI is more than 100 µM.

Take `Cc1cn(C2C=CC(COP(=O)(OCC3=CC(=O)c4ccccc4C3=O)N(C)CCCCCl)O2)c(=O)[nH]c1=O` (configuration not stated): the TGI came to 29.3 µM.

`CCOC(=O)c1cc(=C2\CCN(CC(C)CC)C2=S)/c(=C(/O)CC)[nH]1` (configuration not stated): the TGI is 25.9 µM.

The compound `CCCCc1c(O)nc(Nc2nc3ccccc3[nH]2)[nH]c1=O` had a TGI of more than 100 µM.

`CC1(C)CC2(C)CC1CC2O` (configuration not stated) had a TGI of more than 100 µM.

The compound `N#CC1=C(N)OC2=C(CSc3ccccc32)C1c1ccc(Br)cc1` (configuration not stated) yielded a TGI of 23.8 µM.

For the compound `CCC(=O)C(c1ccccc1)c1ccccn1` (configuration not stated), the TGI was more than 100 µM.

The compound `Cc1sc2nc3n(c(=O)c2c1C)N=CN(c1ccccc1)C3` returned a TGI of more than 100 µM.

The compound `COC(=O)C1=C(C(=O)OC)C2OC1C1C2C2(C)C(C)=C(C)C1(C)S2=O` (configuration not stated) came in with a TGI of 12.6 µM.

Consider `CCOC(=O)CCC(NC(=O)c1ccc(OCc2nc3cc(C(F)(F)F)ccc3nc2-c2ccccc2)cc1)C(=O)OCC` (configuration not stated), for which the TGI was more than 100 µM.

`O=c1c2c3ccccc3[nH]c2c2cccc3c2n1CCC3`: the TGI was more than 100 µM.

`c1ccc([P+](CCNCCNCC[P+](c2ccccc2)(c2ccccc2)c2ccccc2)(c2ccccc2)c2ccccc2)cc1` had a TGI of more than 100 µM.

`c1ccc(C[P+]2(c3ccccc3)c3ccccc3-c3ccccc32)cc1`: the TGI is more than 100 µM.

Take `C=CCN(CC=C)Cn1c(=S)sc2ccccc21`: the TGI was more than 100 µM.

The compound `O=c1[nH]c2nc3ccccc3c(=O)n2/c1=C/c1ccc(O)cc1` registered a TGI of 56.4 µM.

`CCOC(=O)c1c(NC(=O)c2ccccc2)sc2c1CCCC2` showed a TGI of more than 100 µM.

As for `O=c1c2ccccc2[nH]c(=S)n1-c1ccc(N=Nc2cccc3c(O)cccc23)cc1`, the TGI is more than 100 µM.

With `CCOc1ccc(N/C(=C(/C(Cl)=C(/Cl)NCCN)[N+](=O)[O-])n2nnc3ccccc32)cc1`, the TGI is 21.6 µM.

With `CC(=O)NC1C(OCc2ccccc2)OC(CO)C(O)C1OCC(=O)N[C@@H](C)C(=O)N[C@H](CCC(=O)NCCNCCNc1c2ccccc2nc2cccc([N+](=O)[O-])c12)C(N)=O` (some centres not stated), the TGI is more than 100 µM.

Compound `O=C1CC(C(O)CO)CC(=O)N1` (configuration not stated) gave a TGI of more than 100 µM.

With `C[C@]12OC[C@H](c3ccccc3)N1C(=O)C1[C@H]2CC12SCCS2` (some centres not stated), the TGI is more than 100 µM.

In the case of `O=C(Cc1nc2ccc(C(=O)c3ccccc3)cc2[nH]c1=O)C(=O)Nc1ccc(Br)cc1`, the TGI was more than 100 µM.

`Cc1cccc(N2C(=O)C3ON(C(C(N)=O)c4ccccc4)C(c4c5ccccc5c(Cl)c5ccccc45)C3C2=O)c1C` (configuration not stated) gave a TGI of more than 50 µM.

In the case of `Cc1ccccc1C1OC1C(=O)c1ccccc1N` (configuration not stated), the TGI is more than 100 µM.

Turning to `CCN(CC)CCn1c2cc3c(cc2c(=O)c2cccnc21)OCCO3`, the TGI was more than 10 µM.
